Each compound was assayed on vaccinia virus (assay: microbe, parasite or virus in culture). Conditions: Orthopoxvirus vaccinia, BSC-40, in Chlorocebus sabaeus, read-out: EC50 (inhibition of viral replication).
Type: cell-based
CC(C)C(=O)Nc1cc(C(=O)N[C@H](C)c2ccc(F)cc2)cc(-c2c[nH]c(-c3cc4ccccc4cn3)n2)c1 [Example 1] was tested, and the EC50 was ≤ 500 nM.
C[C@@H](NC(=O)c1cc(NC(=O)C(C)(C)F)cc(-c2c[nH]c(-c3cc4ccccc4cn3)n2)c1)c1ccc(F)cc1 [Example 17, N-[(1R)-1-(4-fluorophenyl)ethyl]-3-(2-isoquinoline-3-yl-1H-imidazol-4-yl)-5-(2-fluoroisobutyrylamino)benzamide] was tested, and the EC50 was ≤ 500 nM.
With C[C@@H](NC(=O)c1cc(NC(=O)C(C)(C)C)cc(-c2c[nH]c(-c3cc4ccccc4cn3)n2)c1)c1ccc(F)cc1 [Example 15] the EC50 was ≤ 500 nM.
For C[C@@H](NC(=O)c1cc(Cl)cc(-c2c[nH]c(-c3cc4ccccc4cn3)n2)c1)c1ccc(F)cc1 [Example 5, N-[(1R)-1-(4-fluorophenyl)ethyl]-3-(2-isoquinoline-3-yl-1H-imidazol-4-yl)-5-chlorobenzamide], the EC50 was ≤ 500 nM.
With C[C@@H](NC(=O)c1cccc(-c2c[nH]c(-c3cc4ccccc4cn3)n2)c1)c1ccc(F)cc1 [Example 6, N-[(1R)-1-(4-fluorophenyl)ethyl]-3-(2-isoquinoline-3-yl-1H-imidazol-4-yl)benzamide] the EC50 was ≤ 500 nM.

— patent US20070219239A1, “Nitrogen-containing heterocycle derivatives, pharmaceutical compositions, and methods of use thereof as antiviral agents” (priority 2006, published 2007)
